Source: US9839642B2, “Beta-tetrazolyl-propionic acids as metallo-beta-lactamase inhibitors” (priority 2014, dated 2017)

Legend:
[1] = test system: Serratia marcescens expressing IMP-1 (CL5741); test: Antibiotic potentiation activity: synergistic concentration (MITC95) with imipenem, growth by OD600; assay type: cell-based; details: 95% inhibition of bacterial growth, strain CL5741
Method in brief: (§1)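 MITC95 = lowest inhibitor concentration giving 95% growth inhibition, read by absorbance after 22–24 h at 35° C. Compound range 200 μM to 0.195 μM, imipenem fixed at 1 or 4 μg/ml, bacteria in 1.1×CAMHB from saline suspension diluted 1:100.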

[2] = test system: Klebsiella pneumoniae expressing VIM-1 (IHMA599644); test: as above; assay type: cell-based; details: 95% inhibition of bacterial growth, strain IHMA599644
Method in brief: as §1

[3] = test system: Escherichia coli expressing NDM-1 (CLB30016); test: as above; assay type: cell-based; details: 95% inhibition of bacterial growth, strain CLB30016
Method in brief: as §1

IMP-1 = IMP-1 (Serratia marcescens, UniProt P52699); test: Enzyme activity: determination of IC50, fluorescence assay with CCF2-FA substrate; assay type: biochemical; details: enzyme 2 pM, CCF2-FA 1.25 μM, 2 hours at 25° C.; read-out: IMP1 IC50
Sequence of IMP-1 (P52699 19-246, looked up, species assumed): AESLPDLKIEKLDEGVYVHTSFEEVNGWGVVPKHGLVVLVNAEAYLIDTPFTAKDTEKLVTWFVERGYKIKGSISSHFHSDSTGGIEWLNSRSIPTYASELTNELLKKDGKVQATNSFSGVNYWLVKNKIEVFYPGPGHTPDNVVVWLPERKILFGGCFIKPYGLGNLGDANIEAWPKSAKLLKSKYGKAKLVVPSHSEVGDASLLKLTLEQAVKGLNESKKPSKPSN
Method in brief: (§2)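 In pH 7 phosphate buffer (100 mM) with 10 μM ZnSO4 and 0.005% Tween-20, CCF2-FA substrate (1.25 μM final) was hydrolysed for 2 h at 25 °C by NDM-1, IMP-1 or VIM-1 at 1, 2 or 30 pM in the presence of inhibitor at 20–0.00063 μM. Emission 460 nm/excitation 405 nm; 4-parameter curve fit gave IC50.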

VIM-1 = VIM-1 (Pseudomonas aeruginosa, UniProt A0A0F7KYQ8); test: as above; assay type: biochemical; details: enzyme 30 pM, CCF2-FA 1.25 μM, 2 hours at 25° C.; read-out: VIM1 IC50
Method in brief: as §2

NDM-1 = NDM-1 (Klebsiella pneumoniae, UniProt C7C422); test: as above; assay type: biochemical; details: enzyme 1 pM, CCF2-FA 1.25 μM, 2 hours at 25° C.; read-out: NDM1 IC50
Sequence of NDM-1 (C7C422 29-270, looked up, species assumed): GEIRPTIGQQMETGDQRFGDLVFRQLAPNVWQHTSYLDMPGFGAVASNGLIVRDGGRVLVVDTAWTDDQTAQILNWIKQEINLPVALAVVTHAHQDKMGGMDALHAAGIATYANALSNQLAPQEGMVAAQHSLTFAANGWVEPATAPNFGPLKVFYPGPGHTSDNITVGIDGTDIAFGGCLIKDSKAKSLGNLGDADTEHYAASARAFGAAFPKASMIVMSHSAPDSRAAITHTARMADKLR
Method in brief: as §2

SMILES: CC(C)C[C@H](C(=O)O)[C@H](Cc1cnc(N)s1)c1nnn[nH]1 [Example 116, (2S)2-[(1S)-2-(2-amino-1,3-thiazol-5-yl)-1-(1H-tetrazol-5-yl)ethyl]-4-methylpentanoic acid]
- IMP1 SM5741 MITC95 [1]: 9.4 µM
- VIM1 KP599644 MITC95 [2]: 18.8 µM
- NDM1 EC30016 MITC95 [3]: 3.1 µM
- IC50 (IMP-1): 290 nM
- IC50 (VIM-1): 4.4 nM
- IC50 (NDM-1): 140 nM

SMILES: CCC[C@H](C(=O)O)[C@H](Cc1cccc(N)n1)c1nnn[nH]1 [Example 117, (2S)-2-[(1S)-2-(6-aminopyridin-2-yl)-1-(1H-tetrazol-5-yl)ethyl]pentanoic acid]
- IMP1 SM5741 MITC95 [1]: >200 µM
- VIM1 KP599644 MITC95 [2]: 18.8 µM
- NDM1 EC30016 MITC95 [3]: 1.6 µM
- IC50 (IMP-1): > 20000 nM
- IC50 (VIM-1): 370 nM
- IC50 (NDM-1): 1300 nM

SMILES: CCC[C@H](C(=O)O)[C@H](Cc1ccnc(N)c1)c1nnn[nH]1 [Example 118, (2S)-2-[(1S)-2-(2-aminopyridin-4-yl)-1-(1H-tetrazol-5-yl)ethyl]pentanoic acid]
- IMP1 SM5741 MITC95 [1]: 200 µM
- VIM1 KP599644 MITC95 [2]: 6.2 µM
- NDM1 EC30016 MITC95 [3]: 2.3 µM
- IC50 (IMP-1): > 20000 nM
- IC50 (VIM-1): 10 nM
- IC50 (NDM-1): 1100 nM

SMILES: CC(C)C[C@H](C(=O)O)[C@H](Cc1ccc2ncc(N)cc2c1)c1nnn[nH]1 [Example 119, (S)-2-((S)-2-(3-aminoquinolin-6-yl)-1-(1H-tetrazol-5-yl)ethyl)-4-methylpentanoic acid]
- IMP1 SM5741 MITC95 [1]: 3.1 µM
- VIM1 KP599644 MITC95 [2]: 25 µM
- NDM1 EC30016 MITC95 [3]: 9.4 µM
- IC50 (IMP-1): 52 nM
- IC50 (VIM-1): 1 nM
- IC50 (NDM-1): 12 nM

SMILES: CC(C)[C@H](C(=O)O)[C@H](Cc1ccc(N)nc1)c1nnn[nH]1 [Example 121, (2S,3S)-4-(6-aminopyridin-3-yl)-2-isopropyl-3-(1H-tetrazol-5-yl)butanoic acid]
- IMP1 SM5741 MITC95 [1]: 37 µM
- VIM1 KP599644 MITC95 [2]: 5.5 µM
- NDM1 EC30016 MITC95 [3]: 0.21 µM
- IC50 (IMP-1): 6000 nM
- IC50 (VIM-1): 35 nM
- IC50 (NDM-1): 120 nM

SMILES: Nc1ccc(C[C@H](c2nnn[nH]2)[C@@H](C(=O)O)C2CCCC2)cn1 [Example 122, (2S,3S)-4-(6-aminopyridin-3-yl)-2-cyclopentyl-3-(1H-tetrazol-5-yl)butanoic acid]
- IMP1 SM5741 MITC95 [1]: 12.5 µM
- VIM1 KP599644 MITC95 [2]: 6.2 µM
- NDM1 EC30016 MITC95 [3]: 0.39 µM
- IC50 (IMP-1): 620 nM
- IC50 (VIM-1): 1.4 nM
- IC50 (NDM-1): 39 nM

SMILES: CC(C)(C)[C@H](C(=O)O)[C@H](Cc1ccc(N)nc1)c1nnn[nH]1 [Example 123, (2R,3S)-4-(6-aminopyridin-3-yl)-2-(tert-butyl)-3-(1H-tetrazol-5-yl)butanoic acid]
- IMP1 SM5741 MITC95 [1]: >200 µM
- VIM1 KP599644 MITC95 [2]: 50 µM
- NDM1 EC30016 MITC95 [3]: 3.1 µM
- IC50 (IMP-1): > 20000 nM
- IC50 (VIM-1): 590 nM
- IC50 (NDM-1): 1100 nM

SMILES: CC(C)[C@H](C(=O)O)[C@H](Cc1ccc(N[C@@H]2CCNC2)nc1)c1nnn[nH]1 [Example 124, (2S,3S)-2-isopropyl-4-(6-((R)-pyrrolidin-3-ylamino)pyridin-3-yl)-3-(1H-tetrazol-5-yl)butanoic acid]
- IMP1 SM5741 MITC95 [1]: 100 µM
- VIM1 KP599644 MITC95 [2]: 50 µM
- NDM1 EC30016 MITC95 [3]: 4.7 µM
- IC50 (IMP-1): 15000 nM
- IC50 (VIM-1): 59 nM
- IC50 (NDM-1): 540 nM

SMILES: CC(C)[C@H](C(=O)O)[C@H](Cc1ccc(N)cn1)c1nnn[nH]1 [Example 125, (2S,3S)-4-(5-aminopyridin-2-yl)-2-isopropyl-3-(1H-tetrazol-5-yl)butanoic acid]
- IMP1 SM5741 MITC95 [1]: 75 µM
- VIM1 KP599644 MITC95 [2]: 12.5 µM
- NDM1 EC30016 MITC95 [3]: 0.39 µM
- IC50 (IMP-1): 12000 nM
- IC50 (VIM-1): 240 nM
- IC50 (NDM-1): 170 nM

SMILES: CC(C)[C@H](C(=O)O)[C@H](Cc1ccc(N2CCC[C@H]2CO)nc1)c1nnn[nH]1 [Example 126, (2S,3S)-4-(6-((S)-2-(hydroxymethyl)pyrrolidin-1-yl)pyridin-3-yl)-2-isopropyl-3-(1H-tetrazol-5-yl)butanoic acid]
- IMP1 SM5741 MITC95 [1]: 25 µM
- VIM1 KP599644 MITC95 [2]: 50 µM
- NDM1 EC30016 MITC95 [3]: 6.2 µM
- IC50 (IMP-1): 530 nM
- IC50 (VIM-1): 34 nM
- IC50 (NDM-1): 63 nM

SMILES: CC(C)[C@H](C(=O)O)[C@H](Cc1ccc(N2CCC[C@@H]2CO)nc1)c1nnn[nH]1 [Example 127, (2S,3S)-4-(6-((R)-2-(hydroxymethyl)pyrrolidin-1-yl)pyridin-3-yl)-2-isopropyl-3-(1H-tetrazol-5-yl)butanoic acid]
- IMP1 SM5741 MITC95 [1]: 200 µM
- VIM1 KP599644 MITC95 [2]: 200 µM
- NDM1 EC30016 MITC95 [3]: 12.5 µM
- IC50 (IMP-1): 10000 nM
- IC50 (VIM-1): 280 nM
- IC50 (NDM-1): 320 nM

SMILES: CC(C)[C@H](C(=O)O)[C@H](Cc1cnc(N)nc1)c1nnn[nH]1 [Example 128, (2S,3S)-4-(2-aminopyrimidin-5-yl)-2-isopropyl-3-(1H-tetrazol-5-yl)butanoic acid]
- IMP1 SM5741 MITC95 [1]: >200 µM
- VIM1 KP599644 MITC95 [2]: 50 µM
- NDM1 EC30016 MITC95 [3]: 9.4 µM
- IC50 (IMP-1): 16000 nM
- IC50 (VIM-1): 51 nM
- IC50 (NDM-1): 150 nM

SMILES: CCC[C@H](C(=O)O)[C@H](Cc1ccc(NCCO)nc1)c1nnn[nH]1 [Example 129, (S)-2-((S)-2-(6-((2-hydroxyethyl)amino)pyridin-3-yl)-1-(1H-tetrazol-5-yl)ethyl)pentanoic acid]
- IMP1 SM5741 MITC95 [1]: 9.4 µM
- VIM1 KP599644 MITC95 [2]: 9.4 µM
- NDM1 EC30016 MITC95 [3]: 0.39 µM
- IC50 (IMP-1): 830 nM
- IC50 (VIM-1): 5.6 nM
- IC50 (NDM-1): 77 nM

SMILES: CCC[C@H](C(=O)O)[C@H](Cc1ccc(OCCN)nc1)c1nnn[nH]1 [Example 130, (S)-2-((S)-2-(6-(2-aminoethoxy)pyridin-3-yl)-1-(1H-tetrazol-5-yl)ethyl)pentanoic acid]
- IMP1 SM5741 MITC95 [1]: 50 µM
- VIM1 KP599644 MITC95 [2]: 18.8 µM
- NDM1 EC30016 MITC95 [3]: 4.7 µM
- IC50 (IMP-1): 8400 nM
- IC50 (VIM-1): 8.3 nM
- IC50 (NDM-1): 900 nM

SMILES: CCC[C@H](C(=O)O)[C@H](Cc1ccc(Oc2ccc(CN)cc2)nc1)c1nnn[nH]1 [Example 131, (S)-2-((S)-2-(6-(4-(aminomethyl)phenoxy)pyridin-3-yl)-1-(1H-tetrazol-5-yl)ethyl)pentanoic acid]
- IMP1 SM5741 MITC95 [1]: 6.2 µM
- VIM1 KP599644 MITC95 [2]: 9.4 µM
- NDM1 EC30016 MITC95 [3]: 0.78 µM
- IC50 (IMP-1): 200 nM
- IC50 (VIM-1): 1.9 nM
- IC50 (NDM-1): 12 nM

SMILES: CCC[C@H](C(=O)O)[C@H](Cc1ccc(NCc2ccc(O)cc2)nc1)c1nnn[nH]1 [Example 132, (S)-2-((S)-2-(6-((4-hydroxybenzyl)amino)pyridin-3-yl)-1-(1H-tetrazol-5-yl)ethyl)pentanoic acid]
- IMP1 SM5741 MITC95 [1]: 38 µM
- VIM1 KP599644 MITC95 [2]: 25 µM
- NDM1 EC30016 MITC95 [3]: 9.4 µM
- IC50 (IMP-1): 1500 nM
- IC50 (VIM-1): 31 nM
- IC50 (NDM-1): 160 nM

SMILES: CC(C)C[C@H](C(=O)O)[C@H](Cc1ccc2cc(NCCO)cnc2c1)c1nnn[nH]1 [Example 133, (S)-2-((S)-2-(3-((2-hydroxyethyl)amino)quinolin-7-yl)-1-(1H-tetrazol-5-yl)ethyl)-4-methylpentanoic acid]
- IMP1 SM5741 MITC95 [1]: 6.2 µM
- VIM1 KP599644 MITC95 [2]: 75 µM
- NDM1 EC30016 MITC95 [3]: 25 µM
- IC50 (IMP-1): 79 nM
- IC50 (VIM-1): 1.6 nM
- IC50 (NDM-1): 12 nM

SMILES: CC(C)C[C@H](C(=O)O)[C@H](Cc1ccc(NCCO)nc1)c1nnn[nH]1 [Example 134, (S)-2-((S)-2-(6-((2-hydroxyethyl)amino)pyridin-3-yl)-1-(1H-tetrazol-5-yl)ethyl)-4-methylpentanoic acid]
- IMP1 SM5741 MITC95 [1]: 4.7 µM
- VIM1 KP599644 MITC95 [2]: 18.8 µM
- NDM1 EC30016 MITC95 [3]: 0.78 µM
- IC50 (IMP-1): 230 nM
- IC50 (VIM-1): 6.6 nM
- IC50 (NDM-1): 88 nM
